Results reported in ChEMBL document CHEMBL1201862, “PubChem BioAssay data set” (2004).
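1) Cells in 96-well plates. 2) Compound, 48 h, 5 concentrations. 3) Linear interpolation between surrounding doses. 4) Unreached endpoint = highest concentration. Here, GI50 denotes the concentration required for 50% inhibition of growth.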 The source made the active and inactive calls. Cut-off read from the data, not from the text of the source: active = GI50 up to about 1.1 µM and inactive = higher.

Legend:
Test in all cases: NCI tumour cell line growth inhibition, 48 h
[1] = test system: LOX IMVI
[2] = test system: SW-620
[3] = test system: T47D
[4] = test system: SF-268
[5] = test system: SK-MEL-28
[6] = test system: UACC-62
[7] = test system: TK-10
[8] = test system: HOP-62
[9] = test system: CAKI-1
[10] = test system: HT-29
[11] = test system: IGROV-1
[12] = test system: SN12C
[13] = test system: A498
[14] = test system: ACHN
[15] = test system: MCF7
[16] = test system: SK-OV-3
[17] = test system: OVCAR-8
[18] = test system: COLO 205
[19] = test system: CCRF-CEM

| SMILES | GI50 [1] | GI50 [2] | GI50 [3] | GI50 [4] | GI50 [5] | GI50 [6] | GI50 [7] | GI50 [8] | GI50 [9] | GI50 [10] | GI50 [11] | GI50 [12] | GI50 [13] | GI50 [14] | GI50 [15] | GI50 [16] | GI50 [17] | GI50 [18] | GI50 [19] |
| --- | --- | --- | --- | --- | --- | --- | --- | --- | --- | --- | --- | --- | --- | --- | --- | --- | --- | --- | --- |
| CCOc1ccccc1Nc1ccc(N)cc1S(=O)(=O)O | > 100 µM (inactive) | > 100 µM (inactive) | > 100 µM (inactive) | > 100 µM (inactive) | > 100 µM (inactive) | > 100 µM (inactive) | > 100 µM (inactive) | > 100 µM (inactive) | > 100 µM (inactive) | > 100 µM (inactive) | > 100 µM (inactive) | > 100 µM (inactive) | > 100 µM (inactive) | > 100 µM (inactive) | – | – | – | – | – |
| O=C(O)c1ccc2[nH]c(=O)oc2c1 | > 100 µM (inactive) | > 100 µM (inactive) | – | > 100 µM (inactive) | > 100 µM (inactive) | > 100 µM (inactive) | > 100 µM (inactive) | > 100 µM (inactive) | > 100 µM (inactive) | > 100 µM (inactive) | > 100 µM (inactive) | > 100 µM (inactive) | > 100 µM (inactive) | > 100 µM (inactive) | > 100 µM (inactive) | > 100 µM (inactive) | > 100 µM (inactive) | > 100 µM (inactive) | > 100 µM (inactive) |
| O=C1CCCSCCCC(=O)CCCSCCC1 | > 100 µM (inactive) | > 100 µM (inactive) | > 100 µM (inactive) | > 100 µM (inactive) | > 100 µM (inactive) | > 100 µM (inactive) | > 100 µM (inactive) | > 100 µM (inactive) | – | > 100 µM (inactive) | > 100 µM (inactive) | > 100 µM (inactive) | – | – | > 100 µM (inactive) | > 100 µM (inactive) | > 100 µM (inactive) | > 100 µM (inactive) | > 100 µM (inactive) |
| COc1cc(C2c3cc4c(cc3OC(NN=C(C)C)C2C)OCO4)cc(OC)c1O (stereo unspecified) | – | 6.93 µM (inactive) | 69.2 µM (inactive) | 31.5 µM (inactive) | 11.5 µM (inactive) | 19.2 µM (inactive) | 25.4 µM (inactive) | – | 61.5 µM (inactive) | 36 µM (inactive) | 15.7 µM (inactive) | 8.39 µM (inactive) | – | – | 12.4 µM (inactive) | – | 27.5 µM (inactive) | 30.9 µM (inactive) | – |
| C=C1C(=O)O[C@@H]2C=C(C)C3=CC(=O)[C@](C)(C[C@H](OC(=O)/C(C)=C\C)[C@@H]12)O3 | 0.299 µM (active) | 0.306 µM (active) | 0.916 µM (active) | 3.12 µM (inactive) | 1.24 µM (inactive) | 0.508 µM (active) | – | 3.14 µM (inactive) | 0.509 µM (active) | 0.647 µM (active) | 1.03 µM (active) | 1.92 µM (inactive) | – | 0.489 µM (active) | 0.41 µM (active) | 4.05 µM (inactive) | 0.51 µM (active) | 0.51 µM (active) | 0.209 µM (active) |
| O=C1C=C2CCC[C@H]3OC(=O)C[C@@]23CC1 | > 100 µM (inactive) | > 100 µM (inactive) | > 100 µM (inactive) | > 100 µM (inactive) | > 100 µM (inactive) | > 100 µM (inactive) | > 100 µM (inactive) | > 100 µM (inactive) | > 100 µM (inactive) | > 100 µM (inactive) | > 100 µM (inactive) | > 100 µM (inactive) | > 100 µM (inactive) | > 100 µM (inactive) | – | > 100 µM (inactive) | – | > 100 µM (inactive) | – |
| COc1cc(C=C2N=C(c3ccccc3)N(n3c(-c4ccccc4)nc4ccccc4c3=O)C2=O)cc(OC)c1OC | 21.6 µM (inactive) | 31.9 µM (inactive) | 20.3 µM (inactive) | 28.4 µM (inactive) | 17.7 µM (inactive) | 22.3 µM (inactive) | 45.9 µM (inactive) | 13.6 µM (inactive) | 48.3 µM (inactive) | 31.8 µM (inactive) | 32.5 µM (inactive) | 16.9 µM (inactive) | – | 28.7 µM (inactive) | 22 µM (inactive) | 35.4 µM (inactive) | 21.1 µM (inactive) | 22 µM (inactive) | 48.5 µM (inactive) |
| CCCCNC(=S)N/C=C1\C(=O)Oc2ccccc2C1=O | > 100 µM (inactive) | 41.7 µM (inactive) | 81.5 µM (inactive) | – | 77.8 µM (inactive) | – | > 100 µM (inactive) | 80.2 µM (inactive) | 26.1 µM (inactive) | > 100 µM (inactive) | 35.4 µM (inactive) | 68.5 µM (inactive) | – | 31.4 µM (inactive) | > 100 µM (inactive) | > 100 µM (inactive) | 42.4 µM (inactive) | > 100 µM (inactive) | – |
| O=C(c1ccccc1)c1ccc2c(c1)NC(=O)c1ccccc1SSc1ccccc1C(=O)N2 | > 100 µM (inactive) | > 100 µM (inactive) | > 100 µM (inactive) | > 100 µM (inactive) | > 100 µM (inactive) | > 100 µM (inactive) | > 100 µM (inactive) | > 100 µM (inactive) | > 100 µM (inactive) | > 100 µM (inactive) | > 100 µM (inactive) | > 100 µM (inactive) | > 100 µM (inactive) | > 100 µM (inactive) | – | > 100 µM (inactive) | > 100 µM (inactive) | > 100 µM (inactive) | > 100 µM (inactive) |
| O=C1c2ccccc2C(=O)c2c(NCCNC(=O)C3CCCN3)ccc(NCCNC(=O)C3CCCN3)c21 (stereo unspecified) | 0.0415 µM (active) | 40.4 µM (inactive) | 30 µM (inactive) | 34.1 µM (inactive) | 41.7 µM (inactive) | 38.7 µM (inactive) | > 100 µM (inactive) | 45 µM (inactive) | > 100 µM (inactive) | 47.4 µM (inactive) | 62.7 µM (inactive) | 46 µM (inactive) | – | 53.7 µM (inactive) | 30.8 µM (inactive) | > 100 µM (inactive) | 33.9 µM (inactive) | 24.5 µM (inactive) | 18.8 µM (inactive) |
| O=P1(Oc2ccc(Cl)cc2)OCCS1 (stereo unspecified) | > 100 µM (inactive) | > 100 µM (inactive) | > 100 µM (inactive) | > 100 µM (inactive) | > 100 µM (inactive) | > 100 µM (inactive) | > 100 µM (inactive) | > 100 µM (inactive) | – | > 100 µM (inactive) | > 100 µM (inactive) | > 100 µM (inactive) | > 100 µM (inactive) | > 100 µM (inactive) | – | > 100 µM (inactive) | > 100 µM (inactive) | > 100 µM (inactive) | > 100 µM (inactive) |
| O=C(/N=N/c1ccc(Cl)cc1Cl)NNc1ccc(Cl)cc1Cl | 16.5 µM (inactive) | 21.3 µM (inactive) | 21.7 µM (inactive) | 30.1 µM (inactive) | 20.7 µM (inactive) | 13.9 µM (inactive) | 24.3 µM (inactive) | 1.75 µM (inactive) | 19.6 µM (inactive) | 37.2 µM (inactive) | 27 µM (inactive) | 16.4 µM (inactive) | 15.7 µM (inactive) | 16.6 µM (inactive) | – | – | 17.7 µM (inactive) | – | 20.2 µM (inactive) |
